Laboratory results taken from patent US20100239670A1, “Topical Composition Method for Treating Urinary Stress Incontinence” (Plethora Solutions Ltd., priority 2000, published 2010).

Legend:
[1] = literature, cited from earlier work
[2] = system: female patients with documented history of stress incontinence; test: Supine and standing blood pressure and pulse rate in the same cross-over study; type: in vivo; details: single topical dose, gel 0.5 ml, 20% w/w; up to 5 hours post dosing
Method: (§1) The invention has been evaluated in a double-blind, randomised, 2-way cross-over study in female patients with documented history of stress incontinence. Each patient was exposed to both placebo and active drug over the course of the study.
(§2) Each patient received either a single dose of topical phenylephrine gel (20% w/w in a volume of 0.5 ml) or placebo according to the randomisation schedule. The gel was applied to the peri-urethral area; in, onto or around the area of the vagina and/or vaginal mucosa, in close proximity to the urethra. For up to 5 hours post dosing, urethral pressure was measured using the standard Lectromed/Galetec MPR/2 ambulatory measurement system. Supine and standing blood pressure and pulse rate was likewise measured using standard methodology via a Dinamap semi-automatic sphygmomanometer.

[3] = system: female patients with documented history of stress incontinence; test: Urethral pressure after topical gel, double-blind randomised 2-way cross-over study; type: in vivo; details: single topical dose, gel 0.5 ml, 20% w/w, applied to peri-urethral area; up to 5 hours post dosing; in contrast to placebo; two typical patients (FIGS. 1 and 2)
Method: as §1, §2

Question: What does the source list for `CNC[C@H](O)c1cccc(O)c1` [phenylephrine]?
Answer: blood pressure ([1]; not topical): substantial elevations; duration of action [1]: short; oral bioavailability ([1]; oral): low; diastolic or systolic blood pressure [2]: no clinically significant changes; pulse rate [2]: no clinically significant changes; intra-urethral pressure [3]: marked and sustained increases
